These compounds were tested on Plutella xylostella (assay: Insecticidal activity, artificial feed surface coating method). Conditions: 125 mg/L test solution.
Type: in vivo
Procedure: (§1) The insecticidal activity of sulfonyl functional compounds in the above embodiments were tested for agricultural biological functions, and the targets of insecticidal activity were Heliothis armigera, Plutella xylostella and Aphiscraccivora.
(§2) Using Heliothis armigera and Plutella xylostella as target, the insecticidal activities of sulfonyl functional compounds were tested by conventional artificial feed surface coating method. 300 microliters of artificial feed and 20 microliters of test solution were added to each well of the 24-well cell culture plate. The test solution was used in different concentrations and repeated twice (Rep1 and Rep2). The concentrations of the test solution were 500 mg/L, 250 mg/L and 125 mg/L, respectively.
(§3) The insecticidal activity of sulfonyl functional compounds against Aphiscraccivora was tested by the method of dipping. Mother liquors were prepared by the sulfonyl functional compounds provided in the above embodiments dissolved in ethanol, respectively. 500 mg/L, 250 mg/L or 125 mg/L test solution could be prepared by diluting the different mother liquors with a liquor that contained 0.1 mL/L of emulgator (Tween-80). Every test solution was tested twice (Rep1 and Rep2). A blank control was set up, and the activity results were compared with the blank control. The mortality rate of 0˜30%, 30˜50%, 50-70%, 70˜90%, or 90˜100% could be orderly set as 0, 3, 5, 7, or 9.

Compound | Insecticidal activity (mortality rate grade) Plutella xylostella
CCC(=O)N1N=C(C)CN(N=Cc2ccc[n+](CCCS(=O)(=O)[O-])c2)C1=O [IV-5] | 0 (mortality rate of 0˜30%)

Same assay, conditions: 250 mg/L test solution

Compound | Insecticidal activity (mortality rate grade) Plutella xylostella
CCC(=O)N1N=C(C)CN(N=Cc2ccc[n+](CCCS(=O)(=O)[O-])c2)C1=O [IV-5] | 0 (mortality rate of 0˜30%)

Same assay, conditions: 500 mg/L test solution

Compound | Insecticidal activity (mortality rate grade) Plutella xylostella
CCC(=O)N1N=C(C)CN(N=Cc2ccc[n+](CCCS(=O)(=O)[O-])c2)C1=O [IV-5] | 3 (30˜50%)

Same assay, conditions: Plutella xylostella; 125 mg/L test solution; read-out: Insecticidal activity (mortality rate grade) Plutella xylostella

Compound | mortality at 125 µg/mL [%]
O=C(NCCc1ccc(OC(F)(F)F)cc1)c1c[n+](CCCS(=O)(=O)O)ccc1C(F)(F)F [Compound I-4] | 0 to 30
O=C(NCCc1ccc(OC(F)(F)F)cc1)c1c[n+](CCCCS(=O)(=O)O)ccc1C(F)(F)F [Compound I-6] | 0 to 30
O=C(NCCc1ccc(OC(F)(F)F)cc1)c1c[n+](C/C=C/S(=O)(=O)O)ccc1C(F)(F)F [Compound I-5] | 30 to 50
N#CCNC(=O)c1c[n+](CCCS(=O)(=O)O)ccc1C(F)(F)F [Compound I-1] | 0 to 30
N#CCNC(=O)c1c[n+](C/C=C/S(=O)(=O)O)ccc1C(F)(F)F [Compound I-2] | 0 to 30
N#CCNC(=O)c1c[n+](CCCCS(=O)(=O)O)ccc1C(F)(F)F [Compound I-3] | 30 to 50

Same assay, conditions: Plutella xylostella; 250 mg/L test solution; read-out: Insecticidal activity (mortality rate grade) Plutella xylostella

Compound | mortality at 250 µg/mL [%]
O=C(NCCc1ccc(OC(F)(F)F)cc1)c1c[n+](CCCS(=O)(=O)O)ccc1C(F)(F)F [Compound I-4] | 30 to 50
O=C(NCCc1ccc(OC(F)(F)F)cc1)c1c[n+](CCCCS(=O)(=O)O)ccc1C(F)(F)F [Compound I-6] | 30 to 50
O=C(NCCc1ccc(OC(F)(F)F)cc1)c1c[n+](C/C=C/S(=O)(=O)O)ccc1C(F)(F)F [Compound I-5] | 50 to 70
N#CCNC(=O)c1c[n+](CCCS(=O)(=O)O)ccc1C(F)(F)F [Compound I-1] | 0 to 30
N#CCNC(=O)c1c[n+](C/C=C/S(=O)(=O)O)ccc1C(F)(F)F [Compound I-2] | 30 to 50
N#CCNC(=O)c1c[n+](CCCCS(=O)(=O)O)ccc1C(F)(F)F [Compound I-3] | 50 to 70

Same assay, conditions: Plutella xylostella; 500 mg/L test solution; read-out: Insecticidal activity (mortality rate grade) Plutella xylostella

Compound | mortality at 500 µg/mL [%]
O=C(NCCc1ccc(OC(F)(F)F)cc1)c1c[n+](CCCS(=O)(=O)O)ccc1C(F)(F)F [Compound I-4] | 50 to 70
O=C(NCCc1ccc(OC(F)(F)F)cc1)c1c[n+](CCCCS(=O)(=O)O)ccc1C(F)(F)F [Compound I-6] | 50 to 70
O=C(NCCc1ccc(OC(F)(F)F)cc1)c1c[n+](C/C=C/S(=O)(=O)O)ccc1C(F)(F)F [Compound I-5] | 50 to 70
N#CCNC(=O)c1c[n+](CCCS(=O)(=O)O)ccc1C(F)(F)F [Compound I-1] | 50 to 70
N#CCNC(=O)c1c[n+](C/C=C/S(=O)(=O)O)ccc1C(F)(F)F [Compound I-2] | 50 to 70
N#CCNC(=O)c1c[n+](CCCCS(=O)(=O)O)ccc1C(F)(F)F [Compound I-3] | 50 to 70

Each compound was assayed on Heliothis armigera in the same assay as above. Conditions: 125 mg/L test solution.
Type: in vivo
Procedure: as §1, §2, §3

Compound | Insecticidal activity (mortality rate grade) Heliothis armigera
CCC(=O)N1N=C(C)CN(N=Cc2ccc[n+](CCCS(=O)(=O)[O-])c2)C1=O [IV-5] | 0 (mortality rate of 0˜30%)

Same assay, conditions: 250 mg/L test solution

Compound | Insecticidal activity (mortality rate grade) Heliothis armigera
CCC(=O)N1N=C(C)CN(N=Cc2ccc[n+](CCCS(=O)(=O)[O-])c2)C1=O [IV-5] | 0 (mortality rate of 0˜30%)

Same assay, conditions: 500 mg/L test solution

Compound | Insecticidal activity (mortality rate grade) Heliothis armigera
CCC(=O)N1N=C(C)CN(N=Cc2ccc[n+](CCCS(=O)(=O)[O-])c2)C1=O [IV-5] | 0 (mortality rate of 0˜30%)

Same assay, conditions: Helicoverpa armigera; 125 mg/L test solution; read-out: Insecticidal activity (mortality rate grade) Heliothis armigera

Compound | mortality at 125 µg/mL [%]
O=C(NCCc1ccc(OC(F)(F)F)cc1)c1c[n+](CCCS(=O)(=O)O)ccc1C(F)(F)F [Compound I-4] | 0 to 30
O=C(NCCc1ccc(OC(F)(F)F)cc1)c1c[n+](CCCCS(=O)(=O)O)ccc1C(F)(F)F [Compound I-6] | 0 to 30
O=C(NCCc1ccc(OC(F)(F)F)cc1)c1c[n+](C/C=C/S(=O)(=O)O)ccc1C(F)(F)F [Compound I-5] | 0 to 30
N#CCNC(=O)c1c[n+](CCCS(=O)(=O)O)ccc1C(F)(F)F [Compound I-1] | 0 to 30
N#CCNC(=O)c1c[n+](C/C=C/S(=O)(=O)O)ccc1C(F)(F)F [Compound I-2] | 0 to 30
N#CCNC(=O)c1c[n+](CCCCS(=O)(=O)O)ccc1C(F)(F)F [Compound I-3] | 0 to 30

Same assay, conditions: Helicoverpa armigera; 250 mg/L test solution; read-out: Insecticidal activity (mortality rate grade) Heliothis armigera

Compound | mortality at 250 µg/mL [%]
O=C(NCCc1ccc(OC(F)(F)F)cc1)c1c[n+](CCCS(=O)(=O)O)ccc1C(F)(F)F [Compound I-4] | 30 to 50
O=C(NCCc1ccc(OC(F)(F)F)cc1)c1c[n+](CCCCS(=O)(=O)O)ccc1C(F)(F)F [Compound I-6] | 0 to 30
O=C(NCCc1ccc(OC(F)(F)F)cc1)c1c[n+](C/C=C/S(=O)(=O)O)ccc1C(F)(F)F [Compound I-5] | 0 to 30
N#CCNC(=O)c1c[n+](CCCS(=O)(=O)O)ccc1C(F)(F)F [Compound I-1] | 0 to 30
N#CCNC(=O)c1c[n+](C/C=C/S(=O)(=O)O)ccc1C(F)(F)F [Compound I-2] | 30 to 50
N#CCNC(=O)c1c[n+](CCCCS(=O)(=O)O)ccc1C(F)(F)F [Compound I-3] | 30 to 50

Same assay, conditions: Helicoverpa armigera; 500 mg/L test solution; read-out: Insecticidal activity (mortality rate grade) Heliothis armigera

Compound | mortality at 500 µg/mL [%]
O=C(NCCc1ccc(OC(F)(F)F)cc1)c1c[n+](CCCS(=O)(=O)O)ccc1C(F)(F)F [Compound I-4] | 30 to 50
O=C(NCCc1ccc(OC(F)(F)F)cc1)c1c[n+](CCCCS(=O)(=O)O)ccc1C(F)(F)F [Compound I-6] | 30 to 50
O=C(NCCc1ccc(OC(F)(F)F)cc1)c1c[n+](C/C=C/S(=O)(=O)O)ccc1C(F)(F)F [Compound I-5] | 30 to 50
N#CCNC(=O)c1c[n+](CCCS(=O)(=O)O)ccc1C(F)(F)F [Compound I-1] | 30 to 50
N#CCNC(=O)c1c[n+](C/C=C/S(=O)(=O)O)ccc1C(F)(F)F [Compound I-2] | 50 to 70
N#CCNC(=O)c1c[n+](CCCCS(=O)(=O)O)ccc1C(F)(F)F [Compound I-3] | 30 to 50

The compounds below were run on Aphiscraccivora (assay: Insecticidal activity, dipping method). Conditions: 125 mg/L test solution.
Type: in vivo
Procedure: as §1, §3

Compound | Insecticidal activity (mortality rate grade) Aphiscraccivora
O=C(NCCc1ccc(OC(F)(F)F)cc1)c1c[n+](CCCS(=O)(=O)O)ccc1C(F)(F)F [Compound I-4] | 3 (30˜50%)
O=C(NCCc1ccc(OC(F)(F)F)cc1)c1c[n+](CCCCS(=O)(=O)O)ccc1C(F)(F)F [Compound I-6] | 5 (50-70%)
O=C(NCCc1ccc(OC(F)(F)F)cc1)c1c[n+](C/C=C/S(=O)(=O)O)ccc1C(F)(F)F [Compound I-5] | 3 (30˜50%)
N#CCNC(=O)c1c[n+](CCCS(=O)(=O)O)ccc1C(F)(F)F [Compound I-1] | 5 (50-70%)
N#CCNC(=O)c1c[n+](C/C=C/S(=O)(=O)O)ccc1C(F)(F)F [Compound I-2] | 7 (70˜90%)
CCC(=O)N1N=C(C)CN(N=Cc2ccc[n+](CCCS(=O)(=O)[O-])c2)C1=O [IV-5] | 7 (70˜90%)
N#CCNC(=O)c1c[n+](CCCCS(=O)(=O)O)ccc1C(F)(F)F [Compound I-3] | 7 (70˜90%)

Same assay, conditions: 250 mg/L test solution

Compound | Insecticidal activity (mortality rate grade) Aphiscraccivora
O=C(NCCc1ccc(OC(F)(F)F)cc1)c1c[n+](CCCS(=O)(=O)O)ccc1C(F)(F)F [Compound I-4] | 5 (50-70%)
O=C(NCCc1ccc(OC(F)(F)F)cc1)c1c[n+](CCCCS(=O)(=O)O)ccc1C(F)(F)F [Compound I-6] | 7 (70˜90%)
O=C(NCCc1ccc(OC(F)(F)F)cc1)c1c[n+](C/C=C/S(=O)(=O)O)ccc1C(F)(F)F [Compound I-5] | 3 (30˜50%)
N#CCNC(=O)c1c[n+](CCCS(=O)(=O)O)ccc1C(F)(F)F [Compound I-1] | 7 (70˜90%)
N#CCNC(=O)c1c[n+](C/C=C/S(=O)(=O)O)ccc1C(F)(F)F [Compound I-2] | 9 (90˜100%)
CCC(=O)N1N=C(C)CN(N=Cc2ccc[n+](CCCS(=O)(=O)[O-])c2)C1=O [IV-5] | 7 (70˜90%)
N#CCNC(=O)c1c[n+](CCCCS(=O)(=O)O)ccc1C(F)(F)F [Compound I-3] | 7 (70˜90%)

Same assay, conditions: 500 mg/L test solution

Compound | Insecticidal activity (mortality rate grade) Aphiscraccivora
O=C(NCCc1ccc(OC(F)(F)F)cc1)c1c[n+](CCCS(=O)(=O)O)ccc1C(F)(F)F [Compound I-4] | 7 (70˜90%)
O=C(NCCc1ccc(OC(F)(F)F)cc1)c1c[n+](CCCCS(=O)(=O)O)ccc1C(F)(F)F [Compound I-6] | 7 (70˜90%)
O=C(NCCc1ccc(OC(F)(F)F)cc1)c1c[n+](C/C=C/S(=O)(=O)O)ccc1C(F)(F)F [Compound I-5] | 7 (70˜90%)
N#CCNC(=O)c1c[n+](CCCS(=O)(=O)O)ccc1C(F)(F)F [Compound I-1] | 9 (90˜100%)
N#CCNC(=O)c1c[n+](C/C=C/S(=O)(=O)O)ccc1C(F)(F)F [Compound I-2] | 9 (90˜100%)
CCC(=O)N1N=C(C)CN(N=Cc2ccc[n+](CCCS(=O)(=O)[O-])c2)C1=O [IV-5] | 9 (90˜100%)
N#CCNC(=O)c1c[n+](CCCCS(=O)(=O)O)ccc1C(F)(F)F [Compound I-3] | 9 (90˜100%)
